# Ends that are not written are not given here.
# How the values were obtained:
# [1] = test system: E. faecalis ATCC 700802 - VRE; details: ATCC 700802, 24 h
# [2] = test system: E. faecium ATCC 700221 - VRE; details: ATCC 700221, 24 h
# human red blood cells = details: pH 7.4
# [3] = test system: 11 clinically relevant pathogens; assay type: cell-based
# [4] = test system: E. coli AIC222 (polymyxin resistant; colistin-resistant strain); details: 24 h
# E. coli AIC221 = details: AIC221, 24 h
# K. pneumoniae ATCC 13883 = details: ATCC 13883, 24 h
Sequence,"Minimal Inhibitory Concentration, E. faecalis ATCC 700802 - VRE (+) [1] [µmol/L]","Minimal Inhibitory Concentration, E. faecium ATCC 700221 - VRE (+) [2] [µmol/L]",HC50 (human red blood cells),SIcytotoxicity (HEK293T cells),CC50 vs HEK293T cells (HEK293T cells) [µM],CC50 vs HEK293T cells (source data of Figure 4a) (HEK293T cells; 24 h) [µM],Antimicrobial activity against the pathogen panel (in words) [3],"Minimal Inhibitory Concentration, E. coli AIC222 (-) [4] [µmol/L]","Minimal Inhibitory Concentration, E. coli AIC221 (-) (E. coli AIC221) [µmol/L]","Minimal Inhibitory Concentration, K. pneumoniae ATCC 13883 (-) (K. pneumoniae ATCC 13883) [µmol/L]"
LLHFSIWRSTVLRK [ISOB-4],64,16,24308.0,9.7,–,–,–,–,–,–
WLGSALKIGAKLL [UniprotKB-2],–,–,5.529e+042,–,8,8.278,no activity,–,–,–
KFLARLVFRKFILL [UniprotKB-13],32,2,455.9,13.4,27,–,–,32,8,64

# Source: article PMC12254355 (Nature Communications, 2025)
